The source made the active and inactive calls. The calls are words filed in the database; no cut-off is given here.
Tests used:
Caco-2 [1] = test: Inhibition of ATPase measured as ATP availability in Caco-2 cells at 20 nM after 90 mins relative to control; assay type: functional, Homo sapiens; set-up: scale not given: the % may be the effect or the level left
Caco-2 [2] = test: Inhibition of ATPase measured as ATP availability in Caco-2 cells at 20 nM after 120 mins relative to control; assay type: functional, Homo sapiens; set-up: scale not given: the % may be the effect or the level left
Caco-2 [3] = test: Inhibition of ATPase measured as ATP availability in Caco-2 cells at 20 nM after 60 mins relative to control; assay type: functional, Homo sapiens; set-up: scale not given: the % may be the effect or the level left
D(2) dopamine receptor = D(2) dopamine receptor (Homo sapiens, UniProt P14416); test: Binding affinity to D2 receptor
Sequence of D(2) dopamine receptor (P14416 whole entry): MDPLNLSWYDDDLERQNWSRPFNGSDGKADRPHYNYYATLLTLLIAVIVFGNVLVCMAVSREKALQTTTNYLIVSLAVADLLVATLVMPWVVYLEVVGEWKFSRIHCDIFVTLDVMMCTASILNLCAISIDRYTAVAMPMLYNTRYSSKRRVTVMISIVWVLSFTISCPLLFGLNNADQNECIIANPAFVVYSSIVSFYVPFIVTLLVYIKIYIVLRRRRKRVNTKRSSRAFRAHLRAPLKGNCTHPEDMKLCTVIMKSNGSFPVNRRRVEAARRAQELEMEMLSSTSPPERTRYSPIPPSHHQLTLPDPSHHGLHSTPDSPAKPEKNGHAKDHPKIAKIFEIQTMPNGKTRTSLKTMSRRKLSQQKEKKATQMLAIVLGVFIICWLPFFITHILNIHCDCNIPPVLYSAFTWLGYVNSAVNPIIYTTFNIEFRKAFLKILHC

NCI/ADR-RES = test: Cytotoxicity against MCF7/Adr cells at 100 uM after 48 hrs; assay type: functional, Homo sapiens
Caco-2 [4] = test: Inhibition of vinblastine-induced ATPase activation in Caco-2 cells; assay type: functional, Homo sapiens
[5] = target: T1, 5-hydroxytryptamine receptor 1A (Homo sapiens, UniProt P08908); test: Binding affinity to 5HT1A receptor
T1 sequence (P08908 whole entry): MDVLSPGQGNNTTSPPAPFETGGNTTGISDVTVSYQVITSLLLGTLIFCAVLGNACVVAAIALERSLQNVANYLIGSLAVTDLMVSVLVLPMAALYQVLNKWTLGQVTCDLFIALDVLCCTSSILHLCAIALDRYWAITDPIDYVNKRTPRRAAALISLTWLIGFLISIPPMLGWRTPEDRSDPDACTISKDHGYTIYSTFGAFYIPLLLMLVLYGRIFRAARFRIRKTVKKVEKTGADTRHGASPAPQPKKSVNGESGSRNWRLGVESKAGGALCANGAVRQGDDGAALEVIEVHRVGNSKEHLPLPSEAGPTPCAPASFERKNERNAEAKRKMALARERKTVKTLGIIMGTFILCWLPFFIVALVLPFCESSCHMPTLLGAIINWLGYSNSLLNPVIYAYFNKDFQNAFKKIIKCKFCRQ

[6] = target: T2, ATP-dependent translocase ABCB1 (Homo sapiens, UniProt P08183); test: Inhibition of Pgp measured as doxorubicin accumulation in MCF7/Adr cells at 20 nM by flow cytometry; assay type: functional, cell-based; conditions: nci/adr-res, 0.02 µM
T2 sequence (P08183 whole entry): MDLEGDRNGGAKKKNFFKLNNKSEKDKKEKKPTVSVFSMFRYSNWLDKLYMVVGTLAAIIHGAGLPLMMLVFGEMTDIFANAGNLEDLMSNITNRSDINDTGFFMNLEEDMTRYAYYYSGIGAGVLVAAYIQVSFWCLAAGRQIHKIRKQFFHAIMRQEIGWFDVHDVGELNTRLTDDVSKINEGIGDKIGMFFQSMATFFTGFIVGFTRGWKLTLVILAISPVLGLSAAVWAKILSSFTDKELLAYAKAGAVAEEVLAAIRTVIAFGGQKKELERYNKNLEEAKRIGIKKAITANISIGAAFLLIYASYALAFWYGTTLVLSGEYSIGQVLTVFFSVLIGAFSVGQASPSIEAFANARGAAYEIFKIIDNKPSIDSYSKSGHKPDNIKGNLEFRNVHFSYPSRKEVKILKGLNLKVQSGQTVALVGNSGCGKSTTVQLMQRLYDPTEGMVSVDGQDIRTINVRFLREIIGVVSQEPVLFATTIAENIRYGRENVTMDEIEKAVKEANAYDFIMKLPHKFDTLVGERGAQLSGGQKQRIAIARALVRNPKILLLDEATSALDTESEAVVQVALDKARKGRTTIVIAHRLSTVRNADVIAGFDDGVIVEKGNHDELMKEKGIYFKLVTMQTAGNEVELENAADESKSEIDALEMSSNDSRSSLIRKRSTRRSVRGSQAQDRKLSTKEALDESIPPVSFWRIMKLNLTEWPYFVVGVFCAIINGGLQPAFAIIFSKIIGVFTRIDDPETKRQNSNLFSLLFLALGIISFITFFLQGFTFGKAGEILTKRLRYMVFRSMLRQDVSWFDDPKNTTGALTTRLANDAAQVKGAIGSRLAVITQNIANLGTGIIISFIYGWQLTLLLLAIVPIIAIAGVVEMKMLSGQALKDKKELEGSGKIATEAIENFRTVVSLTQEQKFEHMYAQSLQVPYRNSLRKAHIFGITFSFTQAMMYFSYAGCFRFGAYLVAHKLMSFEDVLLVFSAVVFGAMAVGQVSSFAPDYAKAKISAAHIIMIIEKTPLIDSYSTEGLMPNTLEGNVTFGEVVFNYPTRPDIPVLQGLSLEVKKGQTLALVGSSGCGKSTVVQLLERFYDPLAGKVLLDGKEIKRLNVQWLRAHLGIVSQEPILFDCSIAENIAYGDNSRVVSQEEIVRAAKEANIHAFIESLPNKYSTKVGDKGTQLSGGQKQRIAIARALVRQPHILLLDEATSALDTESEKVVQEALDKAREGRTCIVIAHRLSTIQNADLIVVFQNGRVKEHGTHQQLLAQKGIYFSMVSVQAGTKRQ

[7] = target: T2, ATP-dependent translocase ABCB1; test: Inhibition of Pgp measured as inhibition of [3H]vinblastine basolateral to apical transport in Caco-2 cells; assay type: functional, cell-based
Caco-2 [8] = test: Inhibition of ATPase measured as increase in ATP level in Caco-2 cells at 20 uM relative to vinblastine after 120 mins; assay type: functional, Homo sapiens; set-up: scale not given: the % may be the effect or the level left

| Compound | Ki (D(2) dopamine receptor) [µM] | Ki [5] [µM] | Activity [6] | EC50 [7] [µM] | Activity (Caco-2 [1]) [%] | Activity (Caco-2 [2]) [%] | Activity (Caco-2 [3]) [%] | Activity (NCI/ADR-RES) [%] | Activity (Caco-2 [4]) [µM] | Activity (Caco-2 [4]; Homo sapiens) | Activity (Caco-2 [8]) [%] |
| --- | --- | --- | --- | --- | --- | --- | --- | --- | --- | --- | --- |
| CC[C@]1(O)C[C@@H]2CN(CCc3c([nH]c4ccccc34)[C@@](C(=O)OC)(c3cc4c(cc3OC)N(C)[C@H]3[C@@](O)(C(=O)OC)[C@H](OC(C)=O)[C@]5(CC)C=CCN6CC[C@]43[C@@H]65)C2)C1 [VINBLASTINE] |  |  |  |  | 72 | 42 | 81 |  |  |  |  |
| COc1cccc(CCc2ccccc2OCc2ccccc2)c1 | 5 | 5 |  | 92.8 |  |  |  | 8 |  | inactive | 19 |
| c1ccc(CCc2ccccc2OCc2cccnc2)cc1 | 5 | 5 |  | 125 |  |  |  | 8 | 100 |  |  |
| COc1cc2c(cc1OC)CN(CCc1ccc(NC(=O)c3cccc4c(=O)c5cccc(OC)c5[nH]c34)cc1)CC2 |  |  |  |  |  |  |  |  |  | inactive |  |
| c1ccc(CCc2ccccc2OCc2ccccn2)cc1 | 5 | 5 |  | 100 |  |  |  | 8 |  | inactive | 15 |
| COc1cccc(CCc2ccccc2OCc2ccccn2)c1 | 5 | 5 | Active | 27.6 |  |  |  | 8 |  | inactive | 41 |
| COc1ccc(CCN(C)CCCC(C#N)(c2ccc(OC)c(OC)c2)C(C)C)cc1OC (centres undefined) |  |  |  |  |  |  |  | 95 |  |  |  |

The remaining compounds from weak to strong by Ki (D(2) dopamine receptor), led by results:

| Ki (D(2) dopamine receptor) [µM] | Ki [5] [µM] | Activity [6] | EC50 [7] [µM] | Compound | Activity (Caco-2 [1]) [%] | Activity (Caco-2 [2]) [%] | Activity (Caco-2 [3]) [%] | Activity (NCI/ADR-RES) [%] | Activity (Caco-2 [4]) [µM] | Activity (Caco-2 [4]; Homo sapiens) | Activity (Caco-2 [8]) [%] |
| --- | --- | --- | --- | --- | --- | --- | --- | --- | --- | --- | --- |
| 5 | 5 |  |  | c1ccc(CCc2ccccc2OCc2ccccc2)cc1 |  |  |  | 8 | 50 |  |  |
| 5 | 5 |  |  | COc1cccc(CCc2ccccc2OCc2cccnc2)c1 |  |  |  | 8 | 400 |  |  |
| 5 | 5 | Active | 17.2 | COc1cccc(CCc2ccccc2OCc2cccc(OC)c2)c1 |  |  |  | 8 |  | inactive | 41 |

— ChEMBL document CHEMBL1137322, “Arylmethyloxyphenyl derivatives: small molecules displaying P-glycoprotein inhibition” (J Med Chem, 2006)
